The values below come from article PMC4007060 (Journal of neuroimmune pharmacology : the official journal …, 2010).

As usually defined, the IC80 is the concentration needed for an effect of 80%. By IC20 is commonly meant the point of the concentration-response curve where the effect stands at 20%.

The subject of experiment [1] is mouse spleen cells, antibody response to sheep red blood cells. Conditions: morphine positive control; ref Rahim et al, 2001; cited from earlier work.
The subject of experiment [2] is ORL-1. Conditions: in vitro; ref Knoflach et al, 1996; Reinscheid et al, 1995; cited from earlier work.
The subject of experiment [3] is ORL-1. Particulars: in vivo; ref Chen et al, 2001; cited from earlier work.
Experiment [4] relates to mouse spleen cells. Particulars: 2 hrs pretreatment, same PFC assay; ref Eisenstein et al, 1995; cited from earlier work.
The subject of a further experiment is human monocytes. Conditions: 10^−6 M naloxone; ref Trombella et al, 2005; cited from earlier work.
The test system of experiment [5] is C-1 A-APA (affinity-purified rabbit antiserum to N/OFQ). The experiment can be described thus: Solid-phase RIA, displacement of. Particulars: for cross-reactivity in RIA: competitive peptide 1 × 10^−6 M to 1.5 × 10^−12 M. It is filed as binding.
In experiment [6] the test system is C-4 A-APA (affinity-purified rabbit antiserum to N/OFQ). Kind of experiment: Solid-phase RIA, displacement of. It counts as binding. Particulars: for cross-reactivity in RIA: competitive peptide 1 × 10^−6 M to 1.5 × 10^−12 M.
Another experiment has as its system C-1 A-APA. The experiment can be described thus: Dot-blot cross-reactivity, C-1 A-APA. Particulars: membrane-spotted peptides. It is filed as binding, rabbit.
The subject of a further experiment is C-4 A-APA. The experiment can be described thus: Dot-blot cross-reactivity, C-4 A-APA. It counts as binding, rabbit. Particulars: membrane-spotted peptides.
Experiment [7] has as its system mouse spleen cells. The experiment can be described thus: Primary in vitro plaque-forming cell. Conditions: primary PFC assay. It is filed as cell-based, mouse (C3HeB/FeJ).
Experiment [8] deals with mouse spleen cells, antibody response to sheep red blood cells. Particulars: s.c. Alzet pump, 48 hr.
Experiment [9] relates to Con A activated rat splenocytes. Particulars: ref Miller and Fulford, 2007, cited from earlier work.
Another experiment has as its system human T cells. Particulars: cited from earlier work.
The next experiment concerns delta opioid receptor. Particulars: ref Mollereau et al, 1994; Pan et al, 1995; cited from earlier work.
The next experiment has as its system mu opioid receptor. Particulars: ref Mollereau et al, 1994; Pan et al, 1995; cited from earlier work.
The subject of the next experiment is kappa opioid receptor. Conditions: ref Mollereau et al, 1994; Pan et al, 1995; cited from earlier work.
For experiment [10], the system named is human monocytes and monocyte-like cell lines (CCL2/MCP-1, CCL5/RANTES). Conditions: CCL2/MCP-1 and CCL5/RANTES; ref Kaminsky and Rogers, 2008; cited from earlier work.
Another experiment deals with astrocyte cultures. Conditions: lipopolysaccharide in vitro; ref Fu et al, 2007; cited from earlier work.
In the next experiment the test system is astrocytes. Conditions: peripheral administration of an inflammatory stimulus; ref Fu et al, 2007; cited from earlier work.
Experiment [11] deals with mouse spleen (TNF-α and IFN-γ mRNA). Conditions: in vivo; cited from earlier work.
Another experiment deals with ORL-1 receptor. Particulars: cited from earlier work.

“Also recorded” adds a separate entry of the source. Where two headings read alike, the source gives them in different places.

As to `CN1CC[C@]23c4c5ccc(O)c4O[C@H]2[C@@H](O)C=C[C@H]3[C@H]1C5` [morphine], in experiment [1], the “dose producing maximal immunosuppression” value is 0.5 mg/kg/day.
Consider `C=CCN1CC[C@]23c4c5ccc(O)c4O[C@H]2C(=O)CC[C@@]3(O)[C@H]1C5` [naloxone], for which the “naloxone sensitivity of ORL-1 activity” value in the experiment on ORL-1 [2] and with ORL-1 [3] was “naloxone insensitive” throughout. In addition, the “block of immunosuppressive effect of morphine and U50488” value with mouse spleen cells [4] is “completely blocked the immunosuppressive effect of morphine and of the kappa agonist, U50488”. Also, the “effect of naloxone on chemotaxis induced by the peptide” value with human monocytes was “did not block human monocyte chemotaxis”.
With BAM-18, the results for the “cross-reactivity in RIA” value in [5] and in experiment [6] were “no significant cross-reactivity; also recorded: No significant cross-reactivities were detected” and “did not show significant cross-reactivity; also recorded: No significant cross-reactivities were detected”, respectively. The dot-blot reactivity entry in the experiment on C-1 A-APA and in the experiment on C-4 A-APA was “not to classical opioid” throughout.
As for Dynorphin A1-17, the “cross-reactivity in RIA” value in experiment [5] was “no significant cross-reactivity”; in [5] (listed as Dynorphin A1-17), “No significant cross-reactivities were detected”; in [6], “did not show significant cross-reactivity”; in experiment [6] (listed as Dynorphin A1-17), “No significant cross-reactivities were detected”.
“Tyr-Gly-Gly-Gly-Met [Met-enkephalin, Met-Enkephalin]”: the dot-blot reactivity result in the experiment on C-1 A-APA and in the experiment on C-4 A-APA was “not to classical opioid” throughout.
As to “Tyr-Gly-Gly-Phe-Leu [Leu-enkephalin, Leu-Enkephalin]”, the “cross-reactivity in RIA” value in experiment [5] is “no significant cross-reactivity”; in [5] (listed as Leu-Enkephalin), “No significant cross-reactivities were detected”; in experiment [6], “did not show significant cross-reactivity”; in [6] (listed as Leu-Enkephalin) it was “No significant cross-reactivities were detected”. The dot-blot reactivity entry in the experiment with C-1 A-APA and with C-4 A-APA was “not to classical opioid” in each case.
For nociceptin/orphanin FQ [N/OFQ], the “suppression of antibody formation” value with mouse spleen cells [7] was “suppressed antibody formation to sheep red blood cells; also recorded: suppresses both the secondary and primary plaque-forming cell assay”. The IC80 in experiment [5] (solid-phase RIA, C-1 A-APA) came out at 2.9 nM; in experiment [6] (solid-phase RIA, C-4 A-APA), 0.71 nM. Besides, in experiment [6] (read-out: smallest measurable displacement, IC20, solid-phase RIA, C-4 A-APA), the concentration for an effect of 20% (IC20) was 0.062 nM. In addition, the dot-blot reactivity result in the experiment on C-1 A-APA and with C-4 A-APA was “showed reactivity to the three nociceptin peptides” throughout. In [8], the “dose of maximal immunosuppression” value is listed as 0.05 mg/kg/day. Also, the “inhibition of proliferation” value in experiment [9] (Con A activated rat splenocytes) is “inhibit the proliferation”. Besides, in [9] (in vitro), the “inhibition of IL-2 production” value is on record as “inhibit the proliferation of Con A activated rat splenocytes, as well as the production of IL-2”. The CD28 expression result in the experiment with human T cells is given as “up-regulated expression of the co-stimulatory molecule CD28”. Besides, the CTLA-4 expression entry with human T cells is recorded as “upregulate CTLA-4”. In addition, in the experiment on human T cells, the PGE2 induction result was “induced PGE2”. The proliferation entry with human T cells is on record as “increased proliferation”. Besides, the binding result in the experiment on delta opioid receptor, in the experiment with mu opioid receptor and in the experiment with kappa opioid receptor was “does not bind” throughout. For the same compound, the chemokine production entry in experiment [10] was “suppress the production of chemokine proteins”. The “mRNA for TNF-α, IL-1β, and IL-6” value in the experiment with astrocyte cultures and in the experiment on astrocytes was “decrease expression of mRNA” in each case. In experiment [11], the “mRNA for TNF-α and IFN-γ in spleens” value is reported as “increased levels of mRNA”. The “forskolin-induced cAMP accumulation” value in the experiment with ORL-1 receptor is “inhibition of forskolin-induced cAMP accumulation”.
